# Assay results from ChEMBL document CHEMBL4316583, “In Vitro and in Vivo Antitumor Effects of Plant-Derived Miliusanes and Their Induction of Cellular Senescence” (J Med Chem, 2019).
# Calls of active or inactive are those of the source. The calls are words filed in the database; no cut-off is given here.
# Tests used:
# HCT-116 [1] = assay: Cytotoxicity against human HCT116 cells assessed as cell growth inhibition after 48 hrs by sulforhodamine B assay; format: functional, cell-based; settings: HCT-116, 48 h
# A-375 = assay: Cytotoxicity against human A375 cells assessed as cell growth inhibition after 48 hrs by sulforhodamine B assay; format: functional, cell-based; settings: A-375, 48 h
# A549 = assay: Cytotoxicity against human A549 cells assessed as cell growth inhibition after 48 hrs by sulforhodamine B assay; format: functional, cell-based; settings: A549, 48 h
# HCT-116 [2] = assay: Cytotoxicity against human HCT116 cells assessed as cell growth inhibition after 24 hrs by sulforhodamine B assay; format: functional, cell-based; settings: HCT-116, 24 h
# HCT-116 [3] = assay: Growth inhibition human HCT116 cells after 72 hrs by MTS assay; format: functional, cell-based; settings: HCT-116, 72 h
# [4] = Ratio of IC50 for human HCT116/VM46 cells to IC50 for human HCT116 cells after 72 hrs by MTS assay; format: functional
# [5] = Ratio of IC50 for human HCT116/VP35 cells to IC50 for human HCT116 cells after 72 hrs by MTS assay; format: functional
# A2780 = assay: Growth inhibition human A2780 cells after 72 hrs by MTS assay; format: functional, cell-based; settings: A2780, 72 h
# [6] = Ratio of IC50 for human A2780DDP cells to IC50 for human A2780 cells after 72 hrs by MTS assay; format: functional
# [7] = Ratio of IC50 for human A2780/TAX cells to IC50 for human A2780 cells after 72 hrs by MTS assay; format: functional
# [8] = test system: Panel NCI-60 (60 carcinoma cell lines); assay: Growth inhibition human NCI60 cells after 48 hrs by sulforhodamine B assay; format: functional
# HCT-116 [9] = assay: Antiproliferative activity against human HCT116 cells assessed as inhibition of colony formation at 0.58 to 2.31 uM after 14 days by crystal violet-staining based assay; format: functional, cell-based
# HCT-116 [10] = assay: Induction of cellular senescence in human HCT116 cells assessed as up-regulation of p21 protein expression at 0.1 to 0.4 ug/ml after 48 hrs by Western blot analysis; format: functional, cell-based
# HCT-116 [11] = assay: Antiproliferative activity against human HCT116 cells assessed as inhibition of colony formation at 0.91 to 3.64 uM after 14 days by crystal violet-staining based assay; format: functional, cell-based
# HCT-116 [12] = assay: Antitumor activity against human HCT116 cells xenografted in nude BALB/c mouse assessed as tumor growth inhibition at 40 mg/kg, ip administered every other day for 21 days relative to control; format: functional; settings: HCT-116, ip, 504 h, read-out: TGI
# HCT-116 [13] = assay: Antitumor activity against human HCT116 cells xenografted in nude BALB/c mouse assessed as tumor growth inhibition at 20 mg/kg, ip administered every other day for 21 days relative to control; format: functional; settings: HCT-116, ip, 504 h, read-out: TGI
# HCT-116 [14] = assay: Induction of cellular senescence in human HCT116 cells assessed as up-regulation of p21 protein expression at 0.2 to 0.8 ug/ml after 48 hrs by Western blot analysis; format: functional, cell-based
# HT-29 = assay: Growth inhibition human HT-29 cells after 72 hrs by MTS assay; format: functional, cell-based
# HCT-116 [15] = assay: Antiproliferative activity against human HCT116 cells xenografted in BALB/c mouse at 20 mg/kg, administered every other day for 3 weeks by Ki67-staining based assay; format: functional, organism-based
# [16] = Toxicity in nude BALB/c mouse xenografted with human HCT116 cells assessed as body weight loss at 20 to 40 mg/kg, administered every other day for 21 days; format: organism-based; settings: in vivo, 504 h
# Mus musculus [17] = assay: Induction of cellular senescence in BALB/c mouse xenografted with human HCT116 cells assessed as up-regulation of p21 protein expression at 20 mg/kg, administered every other day for 3 weeks by immunohistochemical analysis; format: functional, organism-based
# Mus musculus [18] = assay: Induction of cellular senescence in BALB/c mouse xenografted with human HCT116 cells assessed as up-regulation of p16 protein expression at 20 mg/kg, administered every other day for 3 weeks by immunohistochemical analysis; format: functional, organism-based
# Mus musculus [19] = assay: Effect on p27 protein expression in BALB/c mouse xenografted with human HCT116 cells at 20 mg/kg, administered every other day for 3 weeks by immunohistochemical analysis; format: functional, organism-based
# HCT-116 [20] = assay: Antitumor activity against human HCT116 cells xenografted in nude BALB/c mouse assessed as tumor growth inhibition at 25 mg/kg, ip administered every other day for 21 days relative to control; format: functional; settings: HCT-116, ip, 504 h, read-out: TGI
# HCT-116 [21] = assay: Induction of apoptosis in human HCT116 cells assessed as viable cells at 11.5 uM after 48 hrs by annexin V/propidium iodide-double staining based flow cytometry (reference value: 88.3%); format: functional; settings: HCT-116, 48 h, read-out: Activity
# HCT-116 [22] = assay: Induction of apoptosis in human HCT116 cells assessed as early apoptotic cells at 11.5 uM after 48 hrs by annexin V/propidium iodide-double staining based flow cytometry (reference value: 4.8%); format: functional
# HCT-116 [23] = assay: Induction of apoptosis in human HCT116 cells assessed as late apoptotic cells at 11.5 uM after 48 hrs by annexin V/propidium iodide-double staining based flow cytometry (reference value: 4.6%); format: functional
# HCT-116 [24] = assay: Induction of apoptosis in human HCT116 cells assessed as necrotic cells at 11.5 uM after 48 hrs by annexin V/propidium iodide-double staining based flow cytometry (reference value: […]); format: functional
# HCT-116 [25] = assay: Induction of cellular senescence in human HCT116 cells at 11.5 uM after 48 hrs by SA-beta-gal-staining based assay; format: functional, cell-based
smiles,measurement,setting,value
COC(=O)C[C@@]1(C/C=C(\C)CCC=C(C)C)C[C@H](OC(C)=O)C=C[C@H]1O,IC50,HCT-116 [1],18.3 µM
same,IC50,A-375,11.6 µM
same,IC50,A549,18 µM
CC(=O)O[C@@H]1CC[C@@H](O)[C@@]2(CC(=O)O[C@@H]2/C=C(\C)CCC=C(C)C)C1,IC50,HCT-116 [1],> 30 µM
same,IC50,HCT-116 [2],> 30 µM
CC(=O)O[C@@H]1C=CC(=O)[C@@]2(CC(=O)O[C@@H]2/C=C(\C)CCC=C(CO)CO)C1,IC50,HCT-116 [1],13.7 µM
same,IC50,HCT-116 [2],12.9 µM
CC(=O)O[C@@H]1CCC(=O)[C@@]2(CC(=O)O[C@@H]2CC(C)CCCC(C)C)C1 (some centres undefined),IC50,HCT-116 [1],> 30 µM
same,IC50,HCT-116 [2],> 30 µM
CC(=O)O[C@@H]1CC[C@@H](OC(C)=O)[C@@]2(CC(=O)O[C@@H]2/C=C(\C)CCC=C(C)C)C1,IC50,HCT-116 [1],> 30 µM
same,IC50,HCT-116 [2],> 30 µM
COc1cc([C@@H]2c3cc4c(cc3[C@@H](O[C@@H]3O[C@@H]5CO[C@@H](C)O[C@H]5[C@H](O)[C@H]3O)[C@H]3COC(=O)[C@H]23)OCO4)cc(OC)c1O [ETOPOSIDE],IC50,HCT-116 [3],0.41 µM
same,Ratio IC50,[4],13.5
same,Ratio IC50,[5],7.4
same,IC50,A2780,0.07 µM
same,Ratio IC50,[6],2.5
same,Ratio IC50,[7],1.7
CO[C@H]1CC(=O)[C@@]2(CC(=O)O[C@@H]2/C=C(\C)CCC=C(C)C)C[C@@H]1O,IC50,HCT-116 [1],17.2 µM
same,IC50,A-375,9.86 µM
same,IC50,A549,18.4 µM
CC(=O)O[C@H]1C[C@]2(CC(=O)O[C@@H]2/C=C(\C)CCC=C(C)C)C(=O)C[C@H]1N(C(=O)c1ccccc1)c1ccccc1,IC50,HCT-116 [1],10.4 µM
same,IC50,HCT-116 [2],14 µM
CC(=O)O[C@@H]1C=CC(=O)[C@@](C/C=C(\C)CCC=C(C)C)(CC(=O)O)C1,IC50,HCT-116 [1],> 57.5 µM
same,IC50,A-375,> 57.5 µM
same,IC50,A549,> 57.5 µM
CC(=O)O[C@@H]1C=CC(=O)[C@@]2(CC(=O)O[C@@H]2/C=C(\C)CCC=C(C)C)C1,GI50,[8],0.03 to 4.79 µM
same,IC50,HCT-116 [1],1.97 to 2.7 µM
same,IC50,A-375,1.67 µM
same,IC50,A549,6.97 µM
same,IC50,HCT-116 [2],3.94 µM
same,Activity,HCT-116 [9],Active
same,Activity,HCT-116 [10],Active
CC(=O)O[C@H]1C[C@]2(CC(=O)O[C@@H]2/C=C(\C)CCC=C(C)C)C(=O)C[C@H]1Nc1ccccc1,IC50,HCT-116 [1],2.5 µM
same,IC50,HCT-116 [2],2.93 µM
same,Activity,HCT-116 [11],Active
same,inhibition in vivo at 40 mg/kg,HCT-116 [12],36.4%
same,inhibition in vivo at 20 mg/kg,HCT-116 [13],36.4%
same,Activity,HCT-116 [14],Active
same,growth inhibition (GI),HT-29,Active
same,Activity,HCT-116 [15],Active
same,Activity,[16],Non-Toxic
same,Activity,Mus musculus [17],Active
same,Activity,Mus musculus [18],Active
same,Activity,Mus musculus [19],inactive
COC(=O)[C@H](O)[C@@]1(C/C=C(\C)CCC=C(C)C)C[C@H](OC(C)=O)C=CC1=O,IC50,HCT-116 [1],4.1 µM
same,IC50,A-375,3.6 µM
same,IC50,A549,7.15 µM
CC(=O)O[C@H]1C[C@]2(CC(=O)O[C@@H]2/C=C(\C)CCC=C(C)C)C(OC(=O)c2ccccc2)=C[C@H]1N(C(=O)c1ccccc1)c1ccccc1,IC50,HCT-116 [1],> 30 µM
same,IC50,HCT-116 [2],> 30 µM
CC(=O)O[C@@H]1C=CC(=O)[C@@]2(CC(=O)O[C@@H]2/C=C(\C)CCCC(C)C=O)C1 (some centres undefined),IC50,HCT-116 [1],5.49 µM
same,IC50,HCT-116 [2],7.18 µM
CC(=O)O[C@H]1C[C@]2(CC(=O)O[C@@H]2/C=C(\C)CCC=C(C)C)C(=O)C[C@@H]1Nc1ccccc1,IC50,HCT-116 [1],2.63 µM
same,IC50,HCT-116 [2],3.43 µM
same,inhibition in vivo at 40 mg/kg,HCT-116 [12],-8.6%
same,inhibition in vivo at 20 mg/kg,HCT-116 [13],31.1%
same,Activity,[16],Non-Toxic
CC(=O)O[C@@H]1CCC(=O)[C@@]2(CC(=O)O[C@@H]2/C=C(\C)CCC=C(C)C)C1,IC50,HCT-116 [1],> 30 µM
same,IC50,HCT-116 [2],> 30 µM
COC(=O)C[C@@]1(C/C=C(\C)CCC=C(C)C)C[C@H](OC(C)=O)C=CC1=O,IC50,HCT-116 [1],13 µM
same,IC50,A-375,10.4 µM
same,IC50,A549,24.5 µM
O=c1[nH]cc(F)c(=O)[nH]1 [FLUOROURACIL],inhibition in vivo at 25 mg/kg,HCT-116 [20],32.5%
same,viability at 11.5 µM,HCT-116 [21],78.3%
same,Activity,HCT-116 [22],4.7%
same,Activity,HCT-116 [23],12.6%
same,Activity,HCT-116 [24],4.4%
same,Activity,HCT-116 [25],Active
CC(=O)O[C@@H]1C=CC(=O)[C@@]2(CC(=O)O[C@@H]2/C=C(\C)CC/C=C(\C)CO)C1,IC50,HCT-116 [1],5.85 µM
same,IC50,HCT-116 [2],6.97 µM
CC(=O)O[C@@H]1C=CC(=O)[C@@]2(CC(=O)O[C@@H]2CC(C)CCCC(C)C)C1 (some centres undefined),IC50,HCT-116 [1],1.95 µM
same,IC50,HCT-116 [2],1.95 µM
CC(=O)O[C@@H]1C=C[C@@H](O)[C@@]2(CC(=O)O[C@@H]2/C=C(\C)CCC=C(C)C)C1,IC50,HCT-116 [1],13.3 µM
same,IC50,A-375,7.24 µM
same,IC50,A549,18.3 µM
CC(C)=CCC/C(C)=C/[C@H]1OC(=O)C[C@]12C[C@H](O)C=C[C@H]2O,IC50,HCT-116 [1],> 65 µM
same,IC50,A-375,> 65 µM
same,IC50,A549,> 65 µM
CC(=O)O[C@@H]1C=CC(=O)[C@@]2(CC(=O)O[C@@H]2/C=C(\C)C/C=C/C(C)(C)O)C1,IC50,HCT-116 [1],4.2 µM
same,IC50,A-375,4.25 µM
same,IC50,A549,20.8 µM
CO[C@@H]1CC(=O)[C@@]2(CC(=O)O[C@@H]2/C=C(\C)CCC=C(C)C)C[C@@H]1O,GI50,[8],0.03 to 4.79 µM
same,IC50,HCT-116 [1],3.5 µM
same,IC50,A-375,3.7 µM
same,IC50,A549,4.36 µM
